Measurements from US11351194B2, “Method for proliferating neural progenitor cells and composition for treating neurological diseases containing proliferated neural progenitor cells” (COLLEGE OF MEDICINE POCHON CHA UNIVERSITY INDUSTRY-ACADEMIC …, priority 2014, dated 2022).

Experiments:
[1] = tested on: fetal neural progenitor cells; assay: Immunocytochemistry analysis using GFAP, Tuj1 and DAPI markers; format: cell-based, human; conditions: for expression of Tuj1 / expression of GFAP: in comparison with M1 and M2 (general culture condition); for expression of Tuj1: Ps<0.02, FIG. 4C; for expression of GFAP: Ps<0.04, FIG. 4B; for frequency of expression of both GFAP and Tuj1: FIG. 4D
Experimental: (§1) 20 ng/ml of each of bFGF and EGF (available from Peprotech, R&D system) and 10 ml of a B27 supplement (available from GIBCO) were added to 500 ml of a mixed medium of DMEM/F12 (1:1) containing 0.5 ml of Primocin, which is an antibiotic formulation, and then, the fetal neural progenitor cells were cultured under a condition in which 1 μg/ml of DL-alpha-tocopherol acetate (M3), 1 μg/ml of (t)-alpha-tocopherol (M4), or a combination thereof (M5) was added. The resulting fetal neural progenitor cells were compared with those cultured under a general culture condition. Regarding the general culture condition, 20 ng/ml of each of bFGF and EGF and an α-supplement (2.5 mg insulin, 25 mg transferrin, 0.03 μM sodium selenite, 36.5 mg L-glutamine, and 0.75 g L-glucose) were added to 500 ml of a mixed medium of DMEM/F12 (1:1) containing 0.5 ml of Primocin, which is an antibiotic formulation, and then, the fetal neural progenitor cells were cultured therein (M1), or under a condition in which the B27 supplement was further added (M2).
The neural progenitor cells were seeded on a 24-well plate at a density of 1×10^5 cells/well, cultured for 7 days, and then, subjected to immunocytochemistry analysis using GFAP, Tuj1, and DAPI markers.

[2] = tested on: fetal neural progenitor cells; assay: Cell viability by MTT assay; format: cell-based, human; conditions: 7 days
Excerpt: Human neural progenitor cells were isolated from 14 week-old human fetuses. Before obtaining the fetus samples, informed consents that had been sufficiently described to parents in advance were received. In addition, the sample collection and use thereof for research were approved by the Institutional Review Board of the CHA Hospital. Ventral midbrain tissues in the brain of a […] human fetus were isolated according to the method disclosed in Storch et al. 2001; and Milosevic et al. 2006, 2007, and then, dissociated into a single cell suspension by treating the ventral midbrain tissues in a solution containing 0.1 mg/ml of papain and 100 μg/ml of DNase at a temperature of 37° C. for about 30 minutes. The single cell suspension was washed with phosphate buffered saline (PBS), and then, incubated in 50 μg/ml of antipain at a temperature of 37° C. for 30 minutes. The resulting neural progenitor cells were plated, in a monolayer, at a density of 30,000 cells/cm^2, onto a culture dish that was pre-coated with 15 μg/ml of poly-L-omithine and 4 μg/ml of fibronectin, and then, cultured. The cultured fetus neural progenitor cells were seeded on a 96-well plate at a density of 1×10^4 cells/well, cultured for 7 days, and treated with an MTT reagent. Then, by measuring optical density thereof (at a wavelength of 570 nm), the cell viability was analyzed.

[3] = tested on: fetal neural progenitor cells; assay: Cytometry (cell number); conditions: 1 μg/ml, 7 days; compared to general condition; Ps<0.0001; FIG. 2B
Experimental: The resulting fetal neural progenitor cells were compared with those cultured under a general culture condition. Regarding the general culture condition, 20 ng/ml of each of bFGF and EGF and an α-supplement (2.5 mg insulin, 25 mg transferrin, 0.03 μM sodium selenite, 36.5 mg L-glutamine, and 0.75 g L-glucose) were added to 500 ml of a mixed medium of DMEM/F12 (1:1) containing 0.5 ml of Primocin, which is an antibiotic formulation, and then, the fetal neural progenitor cells were cultured therein (M1), or under a condition in which the B27 supplement was further added (M2).
The fetal neural progenitor cells were seeded on a 6-well plate at a density of 2×10^5 cells/well, cultured for 7 days, and then subjected to cytometry.

[4] = tested on: fetal neural progenitor cells; assay: Immunocytochemistry analysis using Ki67, Nestin and DAPI markers; format: cell-based, human; conditions: for expression of Ki67: in comparison with M1 and M2 (general culture condition), Ps<0.0001, FIG. 3B; for frequency of expression of both Ki67 and Nestin: in comparison with general culture condition, FIG. 3C
Experimental: as §1
The fetal neural progenitor cells were seeded on a 24-well plate at a density of 1×10^5 cells/well, cultured for 7 days, and then, subjected to immunocytochemistry analysis using Ki67, Nestin, and DAPI markers.

[5] = 7 days, in comparison with general culture condition, Ps<0.0001
[6] = 7 days, in comparison with general culture condition, Ps<0.0001, FIG. 4E
[7] = 1 μg/ml in medium, in comparison with general culture condition (M1, M2), Ps<0.02, FIG. 1
[8] = hypoxia (oxygen about 0.1% to about 10%) in comparison with normoxia, M3: P<0.009, M4: P<0.01, M5: P<0.001
[9] = 7 days, printed comparator: cells cultured under normoxia, Ps≤0.0001, FIG. 3D

| SMILES | expression of Tuj1 ([1]; 7 days) | expression of GFAP ([1]; 7 days) | frequency of expression of both GFAP and Tuj1 [1, 5] | expression of Dapi [1, 6] | cell viability (MTT, optical density 570 nm) [2, 7] | cell viability (MTT, optical density 570 nm) [2, 8] | number of fetal neural progenitor cells [3] | expression of Ki67 ([4]; 7 days) | frequency of expression of both Ki67 and Nestin ([4]; 7 days, Ps≤0.0001) | expression of Dapi [4, 9] | expression of Dapi ([1]; hypoxia in comparison with normoxia, M4: P<0.006) | expression of Dapi ([4]; hypoxia compared with normoxia, M4 P<0.006, M5 P<0.0001) |
| --- | --- | --- | --- | --- | --- | --- | --- | --- | --- | --- | --- | --- |
| CC(=O)Oc1c(C)c(C)c2c(c1C)CCC(C)(CCCC(C)CCCC(C)CCCC(C)C)O2 (racemic) [DL-alpha-tocopherol acetate] | reduced expression of Tuj1 in a statistically significant manner | reduced expression of GFAP in a statistically significant manner | lower frequency of expression of both GFAP and Tuj1 together | statistically significant increase in expression of Dapi | higher cell viability that is statistically significant | higher cell viability that is statistically significant | significantly increased number of fetal neural progenitor cells | increased expression of Ki67 of significance | higher frequency of expression of both Ki67 and Nestin together in a statistically significant manner | statistically significant increase in the expression of Dapi |  |  |
| Cc1c(C)c2c(c(C)c1O)CC[C@@](C)(CCC[C@H](C)CCC[C@H](C)CCCC(C)C)O2 [alpha-tocopherol, (t)-alpha-tocopherol] | reduced expression of Tuj1 in a statistically significant manner | reduced expression of GFAP in a statistically significant manner | lower frequency of expression of both GFAP and Tuj1 together | statistically significant increase in expression of Dapi | higher cell viability that is statistically significant | higher cell viability that is statistically significant | significantly increased number of fetal neural progenitor cells | increased expression of Ki67 of significance | higher frequency of expression of both Ki67 and Nestin together in a statistically significant manner | statistically significant increase in the expression of Dapi | statistically significant increase in the expression of Dapi | statistically significant increase in the expression of Dapi |
